Assay results reported in the supplement of paper PMC11208160.

Assay: recombinant UMI read abundance after kanamycin selection (control-corrected) (log10(CPM+1)); higher = more efficient recombination; extreme values may be limits of the assay; sequences stand for … in AGTGCAGAGAAAATCGGCCAGTTTTCTCTGCCTGCAGTCCGCATGCCGTGGGACCCCTTGGGTTCTAACCTGTTGCCTAGATTTATGCAGCGGACTGCCTTTCTCCCAAAGTGATAAACCGG…AGGTTGGTTTCACT; site = the 11-nt donor
Summary of the method: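 Each donor and donor-binding-loop pair was tracked by a 12-nt UMI on a plasmid carrying a promoterless kanamycin gene. With a second plasmid supplying a fixed target and T7-inducible IS621 bridge recombinase, the pool was plated in Escherichia coli on IPTG (0.07 mM) plus kanamycin or unselected. Sequencing of recombinant UMIs across the donor–target junction gave counts expressed as log10(CPM+1) after replicate averaging and control-derived scaling.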
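Further: IS621 bridge recombinase in Escherichia coli cells against a fixed T5 target plasmid.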

Sequence	recombinant UMI read abundance (log10)
TGCTAAGCATGGACCGGTTTTCCCGGTAATCCGTATTTGGT (site TGCTACGCTAC)	0
TGCTAAGCATGGACCGGTTTTCCCGGTAATCCGTATTTGGT (site TGCTAGGCTAC)	0.0128
TGCTAAGCATGGACCGGTTTTCCCGGTAATCCGTATTTGGT (site TGCTATGCTAC)	0.0152
TGCTAGACATGGACCGGTTTTCCCGGTAATCCGTATTTGGT (site TGCTAGACTAC)	0.462
TGCTAGACATGGACCGGTTTTCCCGGTAATCCGTATTTGGT (site TGCTAGCCTAC)	0.00952
TGCTAGACATGGACCGGTTTTCCCGGTAATCCGTATTTGGT (site TGCTAGGCTAC)	0.0111
TGCTAGACATGGACCGGTTTTCCCGGTAATCCGTATTTGGT (site TGCTAGTCTAC)	0.357
TGCTAGGCATGGACCGGTTTTCCCGGTAATCCGTATTTGGT (site AGCTAGGCTAC)	0.0183
TGCTAGGCATGGACCGGTTTTCCCGGTAATCCGTATTTGGT (site CGCTAGGCTAC)	0.019
TGCTAGGCATGGACCGGTTTTCCCGGTAATCCGTATTTGGT (site GGCTAGGCTAC)	0.0224
TGCTAGGCATGGACCGGTTTTCCCGGTAATCCGTATTTGGT (site TACTAGGCTAC)	0.00634
TGCTAGGCATGGACCGGTTTTCCCGGTAATCCGTATTTGGT (site TCCTAGGCTAC)	0.0105
TGCTAGGCATGGACCGGTTTTCCCGGTAATCCGTATTTGGT (site TGATAGGCTAC)	0.00571
TGCTAGGCATGGACCGGTTTTCCCGGTAATCCGTATTTGGT (site TGCAAGGCTAC)	0
TGCTAGGCATGGACCGGTTTTCCCGGTAATCCGTATTTGGT (site TGCCAGGCTAC)	0.00869
TGCTAGGCATGGACCGGTTTTCCCGGTAATCCGTATTTGGT (site TGCGAGGCTAC)	0.00468
TGCTAGGCATGGACCGGTTTTCCCGGTAATCCGTATTTGGT (site TGCTAAGCTAC)	0.0704
TGCTAGGCATGGACCGGTTTTCCCGGTAATCCGTATTTGGT (site TGCTACGCTAC)	0.0185
TGCTAGGCATGGACCGGTTTTCCCGGTAATCCGTATTTGGT (site TGCTAGACTAC)	0.0977

Sequence	recombinant UMI read abundance (log10)
TGCTAGGCATGGACCGGTTTTCCCGGTAATCCGTATTTGGT (site TGCTAGCCTAC)	0.0225
TGCTAGGCATGGACCGGTTTTCCCGGTAATCCGTATTTGGT (site TGCTAGGCTAA)	0.0155
TGCTAGGCATGGACCGGTTTTCCCGGTAATCCGTATTTGGT (site TGCTAGGCTAC)	0.108
TGCTAGGCATGGACCGGTTTTCCCGGTAATCCGTATTTGGT (site TGCTAGGCTAG)	0.0108
TGCTAGGCATGGACCGGTTTTCCCGGTAATCCGTATTTGGT (site TGCTAGGCTAT)	0.0134
TGCTAGGCATGGACCGGTTTTCCCGGTAATCCGTATTTGGT (site TGCTAGGCTCC)	0.0152
TGCTAGGCATGGACCGGTTTTCCCGGTAATCCGTATTTGGT (site TGCTAGGCTGC)	0.0103
TGCTAGGCATGGACCGGTTTTCCCGGTAATCCGTATTTGGT (site TGCTAGGCTTC)	0.0129
TGCTAGGCATGGACCGGTTTTCCCGGTAATCCGTATTTGGT (site TGCTAGTCTAC)	0.00544
TGCTAGGCATGGACCGGTTTTCCCGGTAATCCGTATTTGGT (site TGCTATGCTAC)	0.00951
TGCTAGGCATGGACCGGTTTTCCCGGTAATCCGTATTTGGT (site TGCTCGGCTAC)	0.0253
TGCTAGGCATGGACCGGTTTTCCCGGTAATCCGTATTTGGT (site TGCTGGGCTAC)	0.0136
TGCTAGGCATGGACCGGTTTTCCCGGTAATCCGTATTTGGT (site TGCTTGGCTAC)	0.0132
TGCTAGGCATGGACCGGTTTTCCCGGTAATCCGTATTTGGT (site TGGTAGGCTAC)	0.00942
TGCTAGGCATGGACCGGTTTTCCCGGTAATCCGTATTTGGT (site TGTTAGGCTAC)	0.026
TGCTAGGCATGGACCGGTTTTCCCGGTAATCCGTATTTGGT (site TTCTAGGCTAC)	0.0121
TGCTAGTCATGGACCGGTTTTCCCGGTAATCCGTATTTGGT (site TGCTAGACTAC)	0.00505
TGCTAGTCATGGACCGGTTTTCCCGGTAATCCGTATTTGGT (site TGCTAGCCTAC)	0.0102
